In one data set the target is T1, porcine tubulin (Sus scrofa, UniProt P02550+P02554).
T1 construct: purchased Cytoskeleton Inc., Denver, CO BK011P
The experiment in a line: Tubulin polymerisation fluorescence-based assay. Format: biochemical. The method, then:
The effect of compounds 16a,b,d on tubulin polymerisation was measured in vitro using tubulin polymerisation fluorescence-based assay (cytoskeleton, cat. BK011P, https://www.cytoskeleton.com/bk011p). The assay was performed following the previous report[22] and according to the manufacturer’s instructions. Briefly, 2 mg/mL porcine tubulin was dissolved in buffer 1 (80 mM PIPES, 2 mM MgCl2, 0.5 mM EGTA pH 6.9, 10 µM fluorescent reporter, 1 mM GTP, 15% glycerol) to a final concentration of […]. Then tubulin solution was transferred to a pre-warmed 96-well plate that contained the test compounds 16a,b,d (5 μM), paclitaxel (3 μM), CaCl2 (0.5 μM), and control buffer. The polymerisation of tubulin was monitored as fluorescence at 37 °C for 60 min. Relative fluorescence units (RFU) were determined at 360 nm for excitation and at 460 nm for emission using the Varioskan Flash spectral scanning multimode reader (Thermo Fisher Scientific, Roskilde, Denmark) at a reading speed of 1 cycle/min.
In the current study, the new compounds were designed bearing the trimethoxy phenyl moiety aiming to obtain new cytotoxic agents that can interfere with tubulin polymerisation in cancer cells. […] In this assay, light scattering by microtubules which is directly proportional to the concentration of the microtubule polymer was used as a measure of tubulin polymerisation. The study was performed using a fluorescence-based tubulin polymerisation assay kit (Cytoskeleton Inc., Denver, CO; Cat # BK011P) following the manufacturer’s instructions (https://www.cytoskeleton.com/bk011p) and according to the previous report.
Paclitaxel (3 μM) was used as a tubulin polymerisation enhancer (positive control, enhancer), while calcium chloride (CaCl2, 0.5 μM) was used as a positive control (inhibitor) as per the manufacturer’s instructions (https://www.cytoskeleton.com/pdf-storage/datasheets/bk011p.pdf). The vehicle was also used to evaluate the polymerisation when tubulin is incubated in the absence of the test compound. The effect of the selected compounds (5 μM) on tubulin polymerisation was evaluated and compared with those of the positive control. The results are represented in Figure 8.

The subject of data set [1] is MCF-7, HCT116, and A2780 cancer cell lines. The experiment in a line: MTT assay, three cancer cell lines taken together (average, overall range). Type of data set: cell-based, human. Conditions: for IC50: Homo sapiens, MCF-7, HCT116, A2780, read-out: Average of the three IC50 values against the three cancer cell lines. A general note: Tetrazolium dyes change colour on reduction, which living cells bring about.
Protocol: Cells from flasks of 70–80% confluency were separately seeded in 96-well flat-bottom microculture plates (Nalgene-Nunc, Thermo Fisher Scientific, Roskilde, Denmark) at a density of 3 × 10^3 cells (MCF-7, A2780, and MRC-5), 1 × 10^4 cells (HCT116), to a volume of 180 μL/well of culture medium. […] The final concentrations of each compound in wells were: 0–50 μM in 200 μL of media (DMSO 0.1%). Lapatinib (Cayman, Ann Arbor, MI) was used as a positive control at the same final concentrations. Medium only (20 μL) was added to each control well, and each concentration was tested in triplicates (n = 3). Following incubation for 72 h, 50 μL MTT was added into each well. Plates were incubated for 3 h, the supernatant was aspirated, and 100 μL of DMSO was added to each well. The optical density (OD) of the purple formazan is proportional to the number of viable cells. […] The absorbance of the reduced MTT was determined using a microplate reader A570 nm.

The subject of data set [2] is A2780. The experiment in a line: MTT cell proliferation assay. Conditions: for IC50: Homo sapiens, A2780, MTT, 72 h treatment, n = 3, read-out: IC50 (µM ± SD) A2780; for Selectivity index A2780: IC50 MRC-5 / IC50 A2780. Type of data set: cell-based, human. The procedure:
(§1) MCF-7 (human breast adenocarcinoma), A2780 (human ovarian cancer) and HCT116 (human colorectal carcinoma), and MRC-5 (normal foetal lung fibroblast) cell lines were bought from the ATCC and were cultured in flasks which were incubated at 37 °C in an atmosphere of 5% CO2, 95% air, and 100% relative humidity, to maintain continuous logarithmic growth. MCF-7, A2780, and HCT116 were maintained in RPMI-1640 media (100 U/mL penicillin, 100 µg/mL streptomycin, and 10% foetal bovine serum, Gibco, Carlsbad, CA). MRC-5 cells were maintained in EMEM (100 U/mL penicillin, 100 µg/mL streptomycin, and 10% foetal bovine serum, Gibco, Carlsbad, CA). Doxorubicin (5 μg/mL, for three months) added for RPMI-1640 media containing MCF7 cells was used to develop doxorubicin-resistant MCF7/ADR cells. All cancer and normal cell lines were cultured according to our previous report. Cells were used within 10–20 passages and were checked for mycoplasma every 6 months, by measuring the bioluminescence (Myco Alert sample detection kit; Lonza, Basel, Switzerland) using the multiplate reader (Synergy HT, BioTek, Winooski, VT).
(§2) The MTT assay was used to measure the cytotoxicity and growth inhibitory activities and cytotoxicity of the new compounds according to our previous report[13]^,[17]. Cells from flasks of 70–80% confluency were separately seeded in 96-well flat-bottom microculture plates (Nalgene-Nunc, Thermo Fisher Scientific, Roskilde, Denmark) at a density of 3 × 10^3 cells (MCF-7, A2780, and MRC-5), 1 × 10^4 cells (HCT116), to a volume of 180 μL/well of culture medium. A Neubauer haemocytometer was used for cell counting. Cells were incubated at 37 °C overnight to allow attachment to the wells. The final concentrations of each compound in wells were: 0–50 μM in 200 μL of media (DMSO 0.1%). Lapatinib (Cayman, Ann Arbor, MI) was used as a positive control at the same final concentrations. Medium only (20 μL) was added to each control well, and each concentration was tested in triplicates (n = 3). Following incubation for 72 h, 50 μL MTT was added into each well. Plates were incubated for 3 h, the supernatant was aspirated, and 100 μL of DMSO was added to each well. The optical density (OD) of the purple formazan is proportional to the number of viable cells. […] GraphPad Prism version 5.00 for Windows was used for analysis (La Jolla, CA). Cytotoxicity of the new compounds was calculated after treatment of cancer/normal cell lines for 72 h. The absorbance of the reduced MTT was determined using a microplate reader A570 nm.
(§3) The cytotoxic activity of the new compounds (15a–e, 16a–e, 20, and 21) was evaluated in vitro using MTT assay. The MTT assay depends on the reduction of the yellow tetrazole dye (MTT) to the purple formazan by the active mitochondrial dehydrogenase enzymes indicating the viability of the cells which can be measured as OD. The new compounds were evaluated against three non-resistant cancer cell lines: MCF-7, and A2780 cell lines were selected to compare cytotoxicity of the new compounds with the previously reported results of compounds 9a,b[13]. Cytotoxicity of the new compounds was also evaluated also against HCT116 cells which lacks COX-2 protein[33]^,[34].

The next data set has as its system HCT116. The experiment in a line: MTT cell proliferation assay. Type of data set: cell-based, human. Conditions: for IC50: Homo sapiens, HCT-116, MTT, 72 h treatment, n = 3, read-out: IC50 (µM ± SD) HCT116; for Selectivity index HCT116: IC50 MRC-5 / IC50 HCT116. The procedure: as §1, §2, §3
Data set [3] relates to MCF-7. The data set can be described thus: MTT cell proliferation assay. Format: cell-based, human. Conditions: for IC50: Homo sapiens, MCF7, MTT, 72 h treatment, n = 3, read-out: IC50 (µM ± SD) MCF-7; for Selectivity index MCF-7: IC50 MRC-5 / IC50 MCF-7. The method, then:
as §1, §2, §3

Data set [4] relates to normal MRC-5 cells. The data set can be described thus: MTT assay, normal cells (cytotoxic selectivity). Format: cell-based. Conditions: Homo sapiens, MRC5, 72 h treatment, n = 3, read-out: IC50 (µM ± SD) MRC-5. The procedure:
as §1, §2
Selectivity towards cancerous cells is one of the important issues which must be considered during the discovery and development of new anticancer agents. To assess the toxicity and selectivity of the new compounds (15a–e, 16a–e, 20, and 21), their growth inhibitory activities against normal human foetal lung fibroblast MRC-5 cells were evaluated using the MTT assay. […] The selectivity of the new compounds towards each of the three cancer cell lines was calculated by dividing their IC50 values against normal MRC-5 cells by their IC50 values against the corresponding cancer cell line (Table 3).

Data set [5] relates to MCF-7. Conditions: MTT, 72 h; read-out: IC50 (µM ± SD) MCF-7; cited from earlier work.
In data set [6] the test system is A2780. Conditions: MTT, 72 h; read-out: IC50 (µM ± SD) A2780; cited from earlier work.
The subject of data set [7] is normal MRC-5 cells. More on the design: method as in PMID 31655429. As to conditions: 72 h; read-out: IC50 (µM ± SD) MRC-5; cited from earlier work.
A further data set has as its target T2, Aurora A (Homo sapiens, UniProt O14965).
T2 sequence (O14965 1-403): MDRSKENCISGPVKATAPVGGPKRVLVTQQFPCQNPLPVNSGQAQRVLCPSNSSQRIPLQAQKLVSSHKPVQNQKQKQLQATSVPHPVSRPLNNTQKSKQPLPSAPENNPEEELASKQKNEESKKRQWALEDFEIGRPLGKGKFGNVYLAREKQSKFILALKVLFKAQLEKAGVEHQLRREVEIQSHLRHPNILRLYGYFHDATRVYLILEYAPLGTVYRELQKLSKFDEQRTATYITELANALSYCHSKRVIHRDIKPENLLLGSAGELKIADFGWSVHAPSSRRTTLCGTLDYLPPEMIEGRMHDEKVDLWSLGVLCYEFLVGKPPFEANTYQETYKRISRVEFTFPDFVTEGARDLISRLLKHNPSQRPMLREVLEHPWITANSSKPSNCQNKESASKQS
The experiment in a line: Kinase profiling test. Type of data set: biochemical. Conditions: stated as inhibition. The procedure: The test was performed using the radiolabeled ATP determination method (KINEXUS Bioinformatics Corporation, Vancouver, Canada). The test was performed following the previous reports[13]^,[20].
The three compounds were tested at the same concentration (10 μM) against the same 20 kinases used in the previous report. The test was performed by KINEXUS Bioinformatics Corporation (Vancouver, Canada), following previous reports[13]^,[20].

Like-named read-outs stand apart in the source and are kept apart here.

T1 sequence (P02550 whole entry): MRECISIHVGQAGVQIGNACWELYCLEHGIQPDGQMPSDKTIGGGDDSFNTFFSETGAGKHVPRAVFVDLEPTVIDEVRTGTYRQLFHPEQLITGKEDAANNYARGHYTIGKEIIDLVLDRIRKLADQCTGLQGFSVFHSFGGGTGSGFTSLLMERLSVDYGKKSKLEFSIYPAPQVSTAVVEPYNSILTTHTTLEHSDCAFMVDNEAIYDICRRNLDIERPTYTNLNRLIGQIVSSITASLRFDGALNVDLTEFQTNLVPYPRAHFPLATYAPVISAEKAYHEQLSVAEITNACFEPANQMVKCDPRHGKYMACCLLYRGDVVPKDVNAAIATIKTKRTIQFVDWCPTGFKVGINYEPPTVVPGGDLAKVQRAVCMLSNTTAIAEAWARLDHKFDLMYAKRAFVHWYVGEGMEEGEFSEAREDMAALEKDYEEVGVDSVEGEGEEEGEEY
T1 sequence (P02554 whole entry): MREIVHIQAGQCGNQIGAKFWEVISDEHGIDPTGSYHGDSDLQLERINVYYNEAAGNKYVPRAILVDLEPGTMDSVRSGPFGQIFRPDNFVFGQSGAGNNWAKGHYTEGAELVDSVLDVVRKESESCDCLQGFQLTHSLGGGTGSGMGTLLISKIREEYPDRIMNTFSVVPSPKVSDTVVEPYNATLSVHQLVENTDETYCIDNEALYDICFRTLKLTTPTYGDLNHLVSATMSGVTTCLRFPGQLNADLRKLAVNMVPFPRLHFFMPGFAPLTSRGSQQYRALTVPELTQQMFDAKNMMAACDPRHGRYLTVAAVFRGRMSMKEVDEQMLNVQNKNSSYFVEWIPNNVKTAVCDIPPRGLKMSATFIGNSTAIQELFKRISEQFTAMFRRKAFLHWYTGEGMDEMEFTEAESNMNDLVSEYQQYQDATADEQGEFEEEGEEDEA

On to `[Ca+2].[Cl-].[Cl-]` [CaCl2, calcium chloride, reference compound], for which the “effect on tubulin polymerisation” value on porcine tubulin (0.5 μM, positive control (inhibitor)) is “inhibited tubulin polymerisation and reduced the final polymer mass”.

What is called IC50 is the concentration that inhibits the measured activity by half. The melting point is the temperature of the solid-liquid transition. As to `COc1cc(C=Nc2c(C#N)c3n(c2C(=O)Nc2ccc(Br)cc2)CCC3)cc(OC)c1OC` [15e, N-(4-Bromophenyl)-7-cyano-6-((3,4,5-trimethoxybenzylidene)amino)-2,3-dihydro-1H-pyrrolizine-5-carboxamide], the melting point lay in the range of 277 to 280 °C. In addition, in [1], the half-maximal inhibitory concentration (IC50) came out at 214 nM. Further, in the data set on A2780 [2], the IC50 was 0.311 ± 0.041 µM and the “Selectivity index A2780” value came out at 54.92. For the same compound, in the data set on HCT116, the half-maximal inhibitory concentration (IC50) worked out at 0.144 ± 0.049 µM and the “Selectivity index HCT116” value is 118.61. Moreover, in the data set on MCF-7 [3], the IC50 amounted to 0.187 ± 0.098 µM and the “Selectivity index MCF-7” value was found to be 91.24. Besides, in the data set on normal MRC-5 cells [4], the concentration for half-maximal inhibition (IC50) was 17.1 ± 0.552 µM.

In the case of `COc1cc(C=Nc2c(C#N)c3n(c2C(=O)Nc2ccccc2)CCCC3)cc(OC)c1OC` [compound 20, 1-Cyano-N-phenyl-2-((3,4,5-trimethoxybenzylidene)amino)-5,6,7,8-tetrahydroindolizine-3-carboxamide], the melting point was in the range of 247 to 249 °C. Moreover, the half-inhibitory concentration (IC50) in [1] worked out at 2300 nM. The “fold increase in cytotoxicity against the three cancer cell lines” value in data set [1] (relative to compound 15a (ring expansion)) was 1.4–27.5 fold. Besides, in the data set with A2780 [2], the IC50 was determined as 0.938 ± 0.116 µM and the “Selectivity index A2780” value was determined as 1.62. In addition, in the data set on HCT116, the IC50 is 0.247 ± 0.069 µM and the “Selectivity index HCT116” value amounted to 6.14. Also, in the data set with MCF-7 [3], the IC50 came out at 5.72 ± 0.185 µM and the “Selectivity index MCF-7” value came out at 0.27. Also, the IC50 in the data set on normal MRC-5 cells [4] was found to be 1.52 ± 0.103 µM.

As to `N#Cc1c(/N=C/c2ccccc2)c(C(=O)Nc2ccc(Br)cc2)n2c1CCC2` [9b], the IC50 was 2330 nM in [1], 0.5 ± 0.15 µM in the data set with MCF-7 [5], 4.16 ± 1.27 µM in the data set on A2780 [6] and 9 ± 0.13 µM in the data set on normal MRC-5 cells [7].

Turning to `COc1cc(C(=O)Nc2c(C#N)c3n(c2C(=O)Nc2ccc(Br)cc2)CCC3)cc(OC)c1OC` [16e, N-(4-Bromophenyl)-7-cyano-6-(3,4,5-trimethoxybenzamido) -2,3-dihydro-1H-pyrrolizine-5-carboxamide], the melting point is 286 to 288 °C. The IC50 in data set [1] came to 483 nM. Besides, in the data set on A2780 [2], the half-inhibitory concentration (IC50) is 0.914 ± 0.092 µM and the “Selectivity index A2780” value was 5.75. Moreover, in the data set with HCT116, the half-maximal inhibitory concentration (IC50) is 0.173 ± 0.039 µM and the “Selectivity index HCT116” value is listed as 30.40. In addition, in the data set on MCF-7 [3], the concentration for half-maximal inhibition (IC50) was 0.361 ± 0.039 µM and the “Selectivity index MCF-7” value is 14.57. The IC50 in the data set with normal MRC-5 cells [4] stood at 5.26 ± 1.4 µM.

Take `COc1cc(C=Nc2c(C#N)c3n(c2C(=O)Nc2ccc(Cl)cc2)CCC3)cc(OC)c1OC` [15d, N-(4-Chlorophenyl)-7-cyano-6-((3,4,5-trimethoxybenzylidene)amino)-2,3-dihydro-1H-pyrrolizine-5-carboxamide]: the melting point is 271 to 273 °C. In [1], the IC50 turned out to be 7450 nM. For the same compound, in the data set on A2780 [2], the IC50 stood at 0.07 ± 0.002 µM and the “Selectivity index A2780” value was 29.61. Besides, in the data set with HCT116, the IC50 came out at 0.534 ± 0.204 µM and the “Selectivity index HCT116” value is 3.88. Moreover, in the data set with MCF-7 [3], the IC50 stood at 21.8 ± 3.18 µM and the “Selectivity index MCF-7” value was 0.10. In addition, in the data set with normal MRC-5 cells [4], the IC50 came to 2.07 ± 0.054 µM.

As for `CC(=O)O[C@H]1C(=O)[C@@]2(C)[C@H]([C@H](OC(=O)c3ccccc3)[C@]3(O)C[C@H](OC(=O)[C@H](O)[C@@H](NC(=O)c4ccccc4)c4ccccc4)C(C)=C1C3(C)C)[C@]1(OC(C)=O)CO[C@@H]1C[C@@H]2O` [paclitaxel, reference compound], the “effect on tubulin polymerisation” value at porcine tubulin (3 μM, positive control (enhancer)) was “eliminated the nucleation phase I and enhanced the growth phase II”.

By inhibition is commonly meant the drop in the measured response relative to a control, in per cent. The low end stands for a weak effect, the high end for a strong effect. As to `Cc1ccc(NC(=O)c2ccc(CN3CCN(C)CC3)cc2)cc1Nc1nccc(-c2cccnc2)n1` [Imatinib, reference compound], testing at 10 µM against Aurora A gave an inhibition of 38%.

Source of the values: paper PMC8221158, “Novel pyrrolizines bearing 3,4,5-trimethoxyphenyl moiety: design, synthesis, molecular docking, and biological evaluation as potential multi-target cytotoxic agents” (Journal of Enzyme Inhibition and Medicinal Chemistry, 2021).
